# Reference: US20240167922A1, “TRANSPARENTIZING REAGENT AND TRANSPARENTIZING METHOD” (KYOTO UNIVERSITY, priority 2021, published 2024)
# Columns and labels:
# [1] = Test for decolorizing agent (opacity); conditions: pasta immersed in the agent 5 days, then SoROCS 3 days; mean±SD of three experiments; water control 1.079±0.002
# Description: Pasta samples made from durum wheat were fixed in 4% (wt/wt) PFA/PBS at 30° C. for 1.5 hours, and washed twice in D-PBS. […] Values represent mean ±SD of three independent experiments.
# [2] = Measurement of opacity of noodle samples after optical clearing; conditions: Example 6: 3M to 4M aqueous solutions, 30° C. for 3 days after fixation
# Description: ClearSee was prepared by mixing xylitol powder [Nacalai tesque, 36718-65; final concentration 10% (wt/vol)], sodium deoxycholate [Nacalai tesque, 10712-96; final concentration 15% (wt/vol)], and urea [Nacalai tesque, 35905-35; final concentration 25% (wt/vol)] in Milli-Q water.
# The opacity of the samples was determined using a cooled CCD camera system (GE Healthcare, ImageQuant LAS 4000). […] Then, the sample was digitised by the CCD camera which was cooled to −25° C. with a lens (F0.85 43 mm) using white transillumination. […] The opacity of the sample was calculated by normalising the gray value of the sample with that of the background using free software (Fiji). The contrast C, which represents the difference in gray level, was calculated according to the following equation (1) from an image of the samples laid with a film on which a grid pattern was printed. The plot profile was measured using Fiji software.
# ClearSee is a reagent that is able to make plant samples transparent as described in Non-patent Literature 1, and aims to remove autofluorescence of chlorophyll from green leaves. To evaluate the transparency of the noodle samples, the opacity of the transmitted light image was quantified.
# The noodle samples were fixed and then immersed in each clearing reagent at 30° C. for 3 days, and the opacity was measured. As controls, the opacity of the noodle sample just after fixation and the noodle sample immersed in D-PBS instead of the clearing reagent was measured. […] Values in the figure represent mean±SD of three independent experiments.
# [3] = Test for defatting agent (opacity); conditions: fried noodles immersed in the agent 5 days, then SoROCS 3 days; mean±SD of three experiments; water control 1.120±0.006
# Description: Wheat noodle samples fried in vegetable oil were fixed in 4% (wt/wt) PFA/PBS at 30° C. for 1.5 hours and washed twice in D-PBS. […] Values represent mean ±SD of three independent experiments.
# [4] = water at 20° C.; cited from earlier work
structure (smiles),measurement,setting,value
"CCCCC(O)CO (stereo not shown) [1,2-hexanediol]",opacity,[1],1.041±0.002
Oc1ccccc1O [catechol],optical clearing of noodle samples,[2],cleared
O=C([O-])c1ccccc1C(=O)[O-].[Na+].[Na+] [disodium phthalate],optical clearing of noodle samples,[2],cleared
C=C(C)[C@H]1CC=C(C)CC1 [limonene],opacity,[3],1.089±0.004
O=C([O-])c1ccccc1O.[Li+] [lithium salicylate],optical clearing of noodle samples,[2],cleared
Oc1cccc(O)c1O [pyrogallol],optical clearing of noodle samples,[2],cleared
Oc1cccc(O)c1 [resorcinol],optical clearing of noodle samples,[2],cleared
O=C([O-])c1cccc(O)c1.[Na+] [sodium 3-hydroxybenzoate],optical clearing of noodle samples,[2],cleared
O=C([O-])c1ccc(O)cc1.[Na+] [sodium 4-hydroxybenzoate],optical clearing of noodle samples,[2],cleared
O=C([O-])c1ccccc1O.[Na+] [sodium salicylate],solubility in water,[4],about 4.125 M
